Assay results as given in patent US20240024338A1, “CARBIDOPA AND L-DOPA PRODRUGS AND METHODS OF USE” (AbbVie Inc., priority 2016, published 2024).

Legend:
[1] = 1-Day stability study of prodrugs in aqueous solution; format: physicochemical; conditions: aqueous solution 80 μg/mL, ambient storage, pH 7.0
Experimental: The L-dopa phosphate prodrugs and the carbidopa phosphate prodrugs were evaluated in a stability study.

[2] = 1-Day stability study, diphosphate combination solution; format: physicochemical; conditions: combination solution: L-dopa 3′,4′-diphosphate 35 mg/mL + carbidopa 3′,4′-diphosphate 8.7 mg/mL, pH 6.2, room temperature, nitrogen purged
Experimental: In addition, a solution combining the diphosphates of each compound (L-dopa 3′, 4′-diphosphate at 35 mg/mL and carbidopa 3′, 4′-diphosphate at 8.7 mg/mL) was monitored over one day at room temperature. This sample was purged with nitrogen to remove oxygen.

[3] = Phosphate prodrug solubility study in water; format: physicochemical; conditions: water, ambient, visual assessment, pH 5.5, Amorphous
Experimental: The L-dopa phosphate prodrugs and the carbidopa phosphate prodrugs were evaluated in a solubility study. The solubility values of the phosphate prodrugs in water under ambient conditions were determined by visual assessment. Table 13-A reports the results of the study, including the measured values for L-dopa and carbidopa.

[4] = In vitro bioconversion study (blood), human; format: in vitro ADME; conditions: prodrug 2.5 μg/mL, 37° C.
Experimental: (§2) The in vitro bioconversion of the L-dopa phosphate prodrugs to L-dopa and the carbidopa phosphate prodrugs to carbidopa was evaluated in several studies. In brief, the L-dopa and carbidopa phosphate prodrugs (2.5 μg/mL) were incubated with tissue homogenate or fractions from rats, mini-pigs, or human, including blood, skin homogenate (3 mg/mL), liver microsomes (1 mg/mL), liver S9 fraction (1 mg/mL), kidney S9 fraction (1 mg/mL), and intestine S9 fractions (1 mg/mL). The reaction mixtures were incubated at 37° C. for 5 to 6 time points within 1 to 2 hours. At the end of each time point, the reaction mixtures were quenched by 2 to 3 volumes of 5% trichloroacetic acid in water. After quenching, the mixtures were centrifuged at 3000 rpm for 20 minutes, and the supernatants were analyzed by LC-MS for quantitation of the prodrug, L-dopa or carbidopa. The in vitro bioconversion was assessed by monitoring both time-dependent depletion of the prodrug and the formation of the corresponding L-dopa or carbidopa.

[5] = In vitro bioconversion study (blood), mini-pig; format: in vitro ADME; conditions: prodrug 2.5 μg/mL, 37° C.
Experimental: as §2

[6] = In vitro bioconversion study (skin homogenates), human; conditions: human skin homogenate 3 mg/mL, prodrug 2.5 μg/mL, 37° C.
[7] = In vitro bioconversion study (skin homogenates), rat; conditions: rat skin homogenate 3 mg/mL, prodrug 2.5 μg/mL, 37° C.
[8] = In vitro bioconversion study (skin homogenates), mini-pig; conditions: mini-pig skin homogenate 3 mg/mL, prodrug 2.5 μg/mL, 37° C.
[9] = In vitro bioconversion study, human liver microsomes; format: in vitro ADME; conditions: human liver microsomes 1 mg/mL, prodrug 2.5 μg/mL, 37° C.
Experimental: as §2

[10] = In vitro bioconversion study, liver S9 fraction, rat; format: in vitro ADME; conditions: rat liver S9 fraction 1 mg/mL, prodrug 2.5 μg/mL, 37° C.
Experimental: as §2

[11] = In vitro bioconversion study, liver S9 fraction, mini-pig; format: in vitro ADME; conditions: mini-pig liver S9 fraction 1 mg/mL, prodrug 2.5 μg/mL, 37° C.
Experimental: as §2

[12] = In vitro bioconversion study, liver S9 fraction, human; format: in vitro ADME; conditions: human liver S9 fraction 1 mg/mL, prodrug 2.5 μg/mL, 37° C.
Experimental: as §2

[13] = In vitro bioconversion study, kidney S9 fraction, rat; format: in vitro ADME; conditions: rat kidney S9 fraction 1 mg/mL, prodrug 2.5 μg/mL, 37° C.
Experimental: as §2

[14] = In vitro bioconversion study, kidney S9 fraction, human; format: in vitro ADME; conditions: human kidney S9 fraction 1 mg/mL, prodrug 2.5 μg/mL, 37° C.
Experimental: as §2

[15] = In vitro bioconversion study (intestinal S9 fractions), human; format: in vitro ADME; conditions: human intestinal S9 fraction 1 mg/mL, prodrug 2.5 μg/mL, 37° C.
Source text: (§1) The t1/2 appeared to be shorter in human intestinal S9 than in rat intestinal S9.

[16] = In vitro bioconversion study (intestinal S9 fractions), rat; format: in vitro ADME; conditions: rat intestinal S9 fraction 1 mg/mL, prodrug 2.5 μg/mL, 37° C.
Source text: as §1

[17] = tested on: rats; test: Local tolerability in rats, single SC bolus dose; format: in vivo; conditions: concentrations up to 125 mg/mL
[18] = In vitro bioconversion study (blood), rat; conditions: prodrug 2.5 μg/mL, 37° C.
Experimental: The in vitro bioconversion of the L-dopa phosphate prodrugs to L-dopa and the carbidopa phosphate prodrugs to carbidopa was evaluated in several studies. […] The reaction mixtures were incubated at 37° C. for 5 to 6 time points within 1 to 2 hours. At the end of each time point, the reaction mixtures were quenched by 2 to 3 volumes of 5% trichloroacetic acid in water. After quenching, the mixtures were centrifuged at 3000 rpm for 20 minutes, and the supernatants were analyzed by LC-MS for quantitation of the prodrug, L-dopa or carbidopa. The in vitro bioconversion was assessed by monitoring both time-dependent depletion of the prodrug and the formation of the corresponding L-dopa or carbidopa.

[19] = listed as diphosphate prodrug of L-dopa

N[C@@H](Cc1ccc(OP(=O)(O)O)c(OP(=O)(O)O)c1)C(=O)O [L-dopa 3′,4′-diphosphate]
% Remaining After One Day [1]: >99%
% Remaining After One Day [2]: >99%
Solubility [3]: >330 mg/mL
L-Dopa or Carbidopa Formation [4]: Yes
T1/2 [4]: 2.3 h
L-Dopa or Carbidopa Formation [5]: Yes
T1/2 [5]: 2.08 h
L-Dopa or Carbidopa Formation [6]: No
T1/2 [6]: stable
L-Dopa or Carbidopa Formation [7]: No
T1/2 [7]: stable
L-Dopa or Carbidopa Formation [8]: No
T1/2 [8]: stable
stability and formation of L-dopa or carbidopa [9]: stable without formation of L-dopa or carbidopa observed
stability and formation of L-dopa or carbidopa [10]: stable without formation of L-dopa or carbidopa observed
stability and formation of L-dopa or carbidopa [11]: stable without formation of L-dopa or carbidopa observed
stability and formation of L-dopa or carbidopa [12]: stable without formation of L-dopa or carbidopa observed
stability and formation of L-dopa or carbidopa [13]: stable without formation of L-dopa or carbidopa observed
stability and formation of L-dopa or carbidopa [14]: stable without formation of L-dopa or carbidopa observed
L-Dopa or Carbidopa Formation [15]: Yes
T1/2 [15, 19]: rapidly dephosphorylated
L-Dopa or Carbidopa Formation [16]: Yes
T1/2 [16, 19]: rapidly dephosphorylated
clinical signs or microscopic findings of local intolerance [17]: no adverse clinical signs or microscopic findings indicative of local intolerance
L-Dopa or Carbidopa Formation [18]: Yes
T1/2 [18]: 6 min
